Measurements reported in patent publication US20180256616A1, “Compounds, Compositions and Methods for Prevention or Treatment of Liver and Lipid-Related Conditions” (Sivanaray, Inc., priority 2015, published 2018).

Assays:
[1] = test system: HFD-fed rats injected with streptozotocin (STZ) to induce type 2 diabetes (T2DM); assay: Study 3 (BVISIV Study): HFD plus STZ type 2 diabetes rats, 200 mg/kg/day; type: in vivo
[2] = has been reported; model of accelerated aging; cited from earlier work

**Q.** With O=C[C@H](O)[C@@H](O)[C@@H](O)[C@H](O)C(=O)O [BVISIV 4, Galacturonic Acid] as the molecule, how does the “lowering of glucose serum levels vs Group 2” value ([1]; end of 6 weeks) read?
**A.** most effective

**Q.** Which “aging effect (cognitive and motor skills)” value [2] does the source give for O=C[C@H](O)[C@@H](O)[C@@H](O)[C@H](O)CO [BVISIV 5, Galactose] here?
**A.** deterioration of cognitive and motor skills

**Q.** What about the “reduction of serum ALT levels” value ([1]; HFD/T2DM rats) of the same molecule?
**A.** effective

**Q.** And the “reduction of serum LDL cholesterol levels” value ([1]; HFD/T2DM rats)?
**A.** effective

**Q.** What about the “reduction of serum triglyceride levels” value ([1]; HFD/T2DM rats) of the same molecule?
**A.** effective

**Q.** Which “comparative performance among formulations (triglycerides, LDL cholesterol, ALT)” value ([1]; HFD/T2DM rats) does the source give for O=C[C@@H](O)[C@H](O)[C@H](O)CO [BVISIV 6, Arabinose] here?
**A.** did not perform as well as the other formulations
